Reference: patent US10138252B1, “Lactones” (Purdue Research Foundation, priority 2017, dated 2018)
Values after ≈ are worked out from the molar mass of the structure shown.

Tests used:
[1] = Antifungal broth microdilution MIC assay; conditions: read-out: minimum inhibitory concentrations
Clostridium difficile = experiment: Broth microdilution MIC against C. difficile strains; conditions: Clostridioides difficile, BAA1870, 48 h, read-out: minimum inhibitory concentrations (MIC)

SMILES	MIC [1] [µM]	MIC (Clostridium difficile) [µM]
CCCC1OC(=O)/C1=C1\CCCN1S(=O)(=O)c1ccc(C)cc1 (stereo not drawn) [Example 22, (E)-4-propyl-3-(1-tosylpyrrolidin-2-ylidene)oxetan-2-one]	64 to 128 (≈ 21.5 to 42.9 µg/mL)	
Cc1ccc(S(=O)(=O)N2CCC3=C2C(c2cccc(Br)c2)OC3=O)cc1 (stereo not drawn) [Example 8, 6-(3-bromophenyl)-1-tosyl-1,2,3,6-tetrahydro-4H-furo[3,4-b]pyrrol-4-one]	64 to 128 (≈ 27.8 to 55.6 µg/mL)	64 to 128 (≈ 27.8 to 55.6 µg/mL)
Cc1ccc(S(=O)(=O)N2CCC3=C2COC3=O)cc1 [Example 11, 1-tosyl-1,2,3,6-tetrahydro-4H-furo[3,4-b]pyrrol-4-one]	64 to 128 (≈ 17.9 to 35.8 µg/mL)	
Cc1ccc(S(=O)(=O)N2CCC3=C2C2(COC2)OC3=O)cc1 [Example 19, 1-tosyl-2,3-dihydrospiro[furo[3,4-b]pyrrole-6,3′-oxetan]-4(1H)-one]	64 to 128 (≈ 20.6 to 41.1 µg/mL)	64 to 128 (≈ 20.6 to 41.1 µg/mL)
